According to paper PMC9228535, “Antistaphylococcal Activities and ADME-Related Properties of Chlorinated Arylcarbamoylnaphthalenylcarbamates” (Pharmaceuticals, 2022):
Converted amounts (≈) assume the structure as drawn. Where two headings read alike, the source gives them in different places.

Columns and labels:
THP-1 cells = test: In vitro cytotoxicity assay (WST-1); assay type: cell-based; conditions: Homo sapiens, THP-1, 24 h
Description: Preliminary in vitro cytotoxicity screening of the investigated compounds was performed using human monocytic leukemia THP-1 cells, see Table 2. The ability to inhibit the human cancer cell viability (IC50) of the compounds was compared to camptothecin toxicity (0.16 ± 0.07 μM). […] However, these values are up to two orders of magnitude higher than their significant antistaphyloccocal concentrations. This fact is also taken into account in the calculated selectivity index (SI), Table 2, where for only three compounds the SI is <20, while for the rest of the agents SI is >20, and for some derivatives even 100 and more. Thus, based on all these observations, it can be concluded that all the tested derivatives can be considered as in vitro non-toxic compounds for the subsequent design of new therapeutic agents.
The human THP-1 cell line (European Collection of Cell Cultures, Salisbury, UK) was cultured in RPMI 1640 medium supplemented with 10% fetal bovine serum, 2% L-glutamine, 1% penicillin, and streptomycin at 37 °C with 5% CO2. Cells were passaged at approximately 1-week intervals. All the tested compounds were prepared and dissolved as mentioned in our previous work.

[1] = Stability of ethyl carbamate by HPLC (decomposition rate, half-life); assay type: physicochemical; conditions: buffer, read-out: half-life τ0,5 (converted)
Description: The minimum inhibitory concentrations (MICs) were evaluated by the microtitration broth method according to the CLSI [64, 65] with some modifications. The compounds were dissolved in DMSO (Sigma, St. Louis, MO, USA) to get a concentration […] and diluted in a microtitration plate in an appropriate medium, namely, Cation Adjusted Mueller–Hinton (CaMH, Oxoid, Basingstoke, UK) for staphylococci (S. aureus ATCC 29213, clinical isolates of MRSA 63718, SA 630, and SA 3202) and brain heart infusion (BHI, Oxoid) for E. faecalis ATCC 29212, to reach the final concentration of 256-0.125 µg/mL. The plate was inoculated by the tested microorganisms. The final concentration of bacterial cells was 10^5 for bacteria. Ampicillin (Sigma) was used as reference drugs. A drug-free control and a sterility control were included. The plates were incubated for 24 h at 37 °C for staphylococci and E. faecalis ATCC 29212 (stability evaluation of the carbamates, see Supplementary materials, Table S1). […] The experiments were repeated three times. […]
evaluate of ethyl carbamate stability. A chromatographic column XTerra® Phenyl 3.5 μm, 100 × 4.6 mm (Waters Corp., Milford, MA, USA) was used. The HPLC separation process was monitored by ChemStation for LC 3D systems (Agilent Technologies). Isocratic elution by a mixture of acetonitrile (HPLC grade, 60.0%) and phosphate buffer, pH 2.5 (40%) as a mobile phase was used. The total flow of the column was 1.0 mL/min, injection 20 μL, the time of analysis was 8 min, column temperature 40 °C, and sample temperature 10 °C. The detection wavelength of 254 nm was chosen. The retention time (tR) of carbamate 2 was 4.92 ± 0.05 min and of the pattern anilide 3.12 ± 0.05 min.
Table S1. Ethyl carbamate 2 decomposition rate and half-life values.

[2] = tested on: S. aureus and MRSA isolates; test: Antistaphylococcal MIC, summary over strains; assay type: cell-based, Staphylococcus aureus; conditions: Staphylococcus aureus, read-out: MICs
Description: All the investigated compounds were screened for in vitro antibacterial activity against the reference and quality control strain Staphylococcus aureus ATCC 29213 and clinical isolates of methicillin-resistant S. aureus (MRSA) 63718, SA 630, and SA 3202 [14]. Activities are expressed as the minimum inhibitory concentrations (MICs), see Table 2. In addition to the MICs, the minimum bactericidal concentrations (MBCs) were also determined. […] MBC values that meet this requirement, i.e., the compound is bactericidal, are indicated in bold in Table 2.
In vitro antibacterial activity of the synthesized compounds was evaluated against representatives of multidrug-resistant bacteria, three clinical isolates of methicillin-resistant S. aureus: clinical isolate of animal origin, MRSA 63718 (Department of Infectious Diseases and Microbiology, Faculty of Veterinary Medicine, University of Veterinary Sciences Brno, Czech Republic), carrying the mecA gene; and MRSA SA 630 [46] and MRSA SA 3202 [46] (National Institute of Public Health, Prague, Czech Republic), both of human origin. Suspected colonies were confirmed by PCR; a 108bp fragment specific for S. aureus was detected. All isolates were tested for the presence of the mecA gene encoding methicillin resistance. […] Vancomycin-susceptible methicillin-susceptible S. aureus (VS-MSSA) ATCC 29213, obtained from the American Type Culture Collection, was used as the reference and quality control strain. Enterococcus faecalis ATCC 29212 was obtained from the American Type Culture Collection and used as the reference and quality control strain.
The minimum inhibitory concentrations (MICs) were evaluated by the microtitration broth method according to the CLSI [64, 65] with some modifications. […]

## CCNC(=O)Oc1c(C(=O)Nc2cc(Cl)c(Cl)cc2Cl)ccc2ccccc12 [Compound 2, 2-[N-(2,4,5-Trichlorophenyl)carbamoyl]naphthalen-1-yl ethyl carbamate]
THP-1 cells
  IC50: 2850 ± 170 nM
[1]; pH 6
  half-life: 50.1 days
[1]; pH 7
  half-life: 23.2 days
[1]; pH 8
  half-life: 9.12 days
[2]
  MIC: 0.018 to 0.064 µM (≈ 0.00788 to 0.028 µg/mL)
